{"source": "patent US20060276468A1", "about": "“Wood preservative formulations comprising Imazalil” (priority 2005, published 2006)", "test_system": "decay organisms", "assay": "soil contact veneer exposure test: dip-treated Scots pine sapwood veneers half buried in damp compost, pulled by hand weekly until failure", "conditions": "for half life, Low level with 0.8% Imazalil sulfate: 0.8% fungicide plus 0.8% imazalil sulfate, IMS; for average time for failure to occur (half life): biocide alone: 0.6% dichlorophen, 0.2% triclosan, 0.8% fenarimol, 0.8% PHMB, 0.4% imazalil sulfate, 6 veneers; for synergy of the combination with imazalil sulfate: actual versus expected average time to failure", "excerpt": "The present invention also provides a simple exposure test for evaluating the wood preserving abilities of candidate ingredients or compositions. This exposure test is based on the premise that small dimension timber test specimens tend to fail more quickly than larger ones in soil contact situations.\nIt is preferable that the thickness of the veneers be greater than 0.1 mm, as veneers of lesser thickness can often be pulled apart by hand without undergoing exposure to decay organisms. Veneers which are thicker than 0.4 may take an excessive amount of time to fail the exposure test. In one embodiment, the thickness of the veneers is about 0.2 mm and the wood is the sapwood of the Scots pine (Pinus sylvestris). Other woods and thicknesses can be used. […] An example of convenient width and length dimensions are 15×50 mm. However, width and length are not critical provided they are kept consistent within a test, although very large or small length or width dimensions may be difficult to handle.\nAccordingly, the test of the present invention comprises testing the integrity of a veneer after exposure to a decay-inducing environment. In one embodiment, this environment is damp compost in which decay organisms are present and water is present at just above the water holding capacity of the compost. If desired, other media can be used, and the test can be conducted at water contents which are below, at, or above the water-holding capacity of the media.\nIn general, the integrity of the veneer is inversely related to the length of exposure to the decay promoting environment. The integrity of the veneer can be tested by applying a force to the veneer and noting whether or not the veneer breaks. Thus, if wood preservative agents are applied to the veneers, these veneers would be expected to withstand longer exposure to the environment without breaking compared to control veneers without breaking.\nThe force applied to the veneers is preferably a force which pulls the two ends in opposite directions. The force can be applied by the use of an instrument or manually. If there is significant decay the veneer will break, generally near the junction between the portion submerged in the decay accelerating medium and the portion exposed to air. If the force is applied manually, it is preferable that the same individual conduct the test at the various exposure time points.\nThe veneers were cut such that both late wood and early wood were present in each veneer. The following biocides were tested: imazalil sulfate, dichlorophen, fenarimol, triclosan, and PHMB. To allow the mixing together of the five selected biocides in any combination the biocides were formulated such that they could be mixed together (all the percentages are mass/mass):\nTest solutions were prepared and sets of veneers were dip treated such that there were 6 replicate veneers for each treatment under investigation. Additionally six veneers were dip treated in deionised water to act as water controls. […] Plastic containers (approximately 350×220 mm by at least 60 mm high) were part filled with John Innes Number 2 potting compost at a little above its water holding capacity. The veneers for this particular test were placed in six rows within a container such that approximately half the veneer was below the compost and half above. The veneers were placed in the compost such than those given a particular treatment were distributed throughout the container and were not grouped together. The containers, compost and veneers were weighed then incubated at about 30° C. and near 100% relative humidity in an incubator. Each week during the test the assembly was reweighed and deionised water added to bring it back to its original mass. After 3 weeks each veneer was examined in turn. It was held between the fore finger and thumb at each end and pulled to see if it could be broken. If it could be pulled apart a failure was recorded.", "key": {"[1]": {"conditions": "Example 3, solutions in IMS (alcohol)"}, "[2]": {"conditions": "unnumbered table, solutions in IMS"}, "[3]": {"conditions": "Example 8, solutions in IMS (alcohol)"}}, "note": "Entries after “also recorded” stand apart in the source; their conditions may differ."}
{"molecule": "OC(c1ccc(Cl)cc1)(c1cncnc1)c1ccccc1Cl", "note": "(racemic) [Fenarimol, (±)-2,4′-dichloro-α-(pyrimidin-5-yl)benzhydryl alcohol]", "values": [{"measurement": "half life, Low level with 0.8% Imazalil sulfate", "value": 6.67, "unit": "weeks"}, {"measurement": "average time for failure to occur (half life), combination with imazalil sulfate", "setting": "Example 1, 0.3% dichlorophen, 0.1% triclosan, 0.4% fenarimol or 0.4% PHMB, each plus 0.2% imazalil sulfate", "value": 6.67, "unit": "weeks"}, {"measurement": "estimated expected average time for failure, combination with imazalil sulfate", "setting": "Example 1, additive expectation, midway between the two single biocides", "value": "(6.17) weeks"}, {"measurement": "average time for failure to occur (half life)", "setting": "Example 1", "value": 7.17, "unit": "weeks"}, {"measurement": "synergy of the combination with imazalil sulfate", "value": "positive synergy"}, {"measurement": "half life, High level (1.6%)", "setting": "solutions in IMS", "value": 5.00, "unit": "weeks"}, {"measurement": "half life, Low level (0.8%)", "setting": "solutions in IMS", "value": 4.50, "unit": "weeks"}]}
{"molecule": "copper naphthenate [Copper (as copper naphthenate)]", "values": [{"measurement": "estimated expected half life for 1% fungicide plus 1% Imazalil", "setting": "Example 6, additive expectation", "value": "{10.50 weeks}"}, {"measurement": "Half life for fungicide at 2% ai", "setting": "Example 6, solutions in xylene", "value": 14.83, "unit": "weeks"}, {"measurement": "Half life for 1% fungicide plus 1% Imazalil", "setting": "Example 6, solutions in xylene, 1% copper", "value": 11.67, "unit": "weeks"}]}
{"molecule": "Oc1ccc(Cl)cc1Cc1cc(Cl)ccc1O", "note": "[Dichlorophen, 2,2′-methylenebis[4-chlorophenol]]", "values": [{"measurement": "average time for failure to occur (half life)", "setting": "Example 1", "value": 9.50, "unit": "weeks"}, {"measurement": "estimated expected half life for 1% fungicide plus 1% Imazalil sulfate", "setting": "Example 3, additive expectation", "value": 12.92, "unit": "weeks"}, {"measurement": "Half life for 1% fungicide plus 1% Imazalil sulfate", "setting": "[1]", "value": 15.33, "unit": "weeks"}, {"measurement": "Half life for fungicide at 2% active ingredient (ai)", "setting": "[1]", "value": 19.83, "unit": "weeks"}, {"measurement": "half life, With Imazalil sulfate", "setting": "Example 14, 0.3% dichlorophen plus 0.2% imazalil sulfate", "value": 11.2, "unit": "weeks"}, {"measurement": "half life, No addition", "setting": "Example 14, 0.6% dichlorophen or 0.4% imazalil sulfate alone", "value": 9.5, "unit": "weeks"}, {"measurement": "expected half life, With Imazalil sulfate", "setting": "Example 14, additive expectation", "value": "{7.4 weeks}"}, {"measurement": "half life, With Imazalil sulfate", "setting": "Example 15, 1.0% dichlorophen plus 1.0% imazalil sulfate, IMS (alcohol)", "value": 19.67, "unit": "weeks"}, {"measurement": "half life, No addition", "setting": "Example 15, 2.0% alone, solutions in IMS (alcohol)", "value": 17.00, "unit": "weeks"}, {"measurement": "expected half life, With Imazalil sulfate", "setting": "Example 15, additive expectation", "value": "{12.42 weeks}"}, {"measurement": "Calculated half life", "setting": "Example 16, 0.8% alone, solutions in IMS (alcohol)", "value": 11.33, "unit": "weeks"}, {"measurement": "Calculated half life", "setting": "Example 16, 0.8% dichlorophen plus 0.8% imazalil sulfate, IMS (alcohol)", "value": 13.00, "unit": "weeks"}, {"measurement": "expected half life", "setting": "Example 16, 0.8% dichlorophen plus 0.8% imazalil sulfate, additive expectation", "value": "{11.25 weeks}"}, {"measurement": "Calculated half life", "setting": "Example 16, 1.6% alone, solutions in IMS (alcohol)", "value": 14.50, "unit": "weeks"}, {"measurement": "synergy of the combination with imazalil sulfate", "value": "positive synergy; also recorded: exceeded the expected value"}]}
{"molecule": "N,N-didecyl-N-methyl-poly(oxethyl)ammonium propionate [Bardap 26]", "values": [{"measurement": "half life, Low level with 0.8% Imazalil sulfate", "value": 4.83, "unit": "weeks"}, {"measurement": "average time for failure to occur, quat with Imazalil sulfate", "setting": "Example 2, 0.18% active quat plus 0.30% imazalil sulfate (Table 3; text b187 says 0.2%)", "value": 5.33, "unit": "weeks"}, {"measurement": "average time for failure to occur, Quat Only", "setting": "Example 2, 0.36% active quat in deionised water", "value": 5.00, "unit": "weeks"}, {"measurement": "estimated expected average time for failure, quat with Imazalil sulfate", "setting": "Example 2, additive expectation", "value": 5.34, "unit": "weeks"}, {"measurement": "synergy of the combination with imazalil sulfate", "value": "approximates that predicted in the case of no synergy"}, {"measurement": "expected half life, Low level with 0.8% Imazalil sulfate", "setting": "additive expectation", "value": "{5.50 weeks}"}, {"measurement": "half life, High level (1.6%)", "setting": "solutions in IMS", "value": 5.17, "unit": "weeks"}, {"measurement": "half life, Low level (0.8%)", "setting": "solutions in IMS", "value": 4.67, "unit": "weeks"}]}
{"molecule": "O=C(Nc1ccccc1)c1ccccc1O", "note": "[Salicylanilide, 2-hydroxy-N-phenylbenzamide]", "values": [{"measurement": "half life, Low level with 0.8% Imazalil sulfate", "setting": "unnumbered table", "value": 6.50, "unit": "weeks"}, {"measurement": "expected half life, Low level with 0.8% Imazalil sulfate", "setting": "unnumbered table, additive expectation", "value": "{6.34 weeks}"}, {"measurement": "half life, High level (1.6%)", "setting": "[2]", "value": 5.67, "unit": "weeks"}, {"measurement": "half life, Low level (0.8%)", "setting": "[2]", "value": 4.83, "unit": "weeks"}]}
{"molecule": "CCCCCCCCCCCCN(CCCN)CCCN", "note": "[Triameen Y 12D-30, N,N-bis(3-aminopropyl)dodeclamine]", "values": [{"measurement": "estimated expected half life, Low level (0.8%) plus 0.8% Imazalil", "setting": "Example 8, additive expectation", "value": "{5.75 weeks}"}, {"measurement": "half life, High level (1.6%)", "setting": "[3]", "value": 5.00, "unit": "weeks"}, {"measurement": "half life, Low level (0.8%)", "setting": "[3]", "value": 4.33, "unit": "weeks"}, {"measurement": "half life, Low level (0.8%) plus 0.8% Imazalil", "setting": "[3]", "value": 6.00, "unit": "weeks"}]}
